Our source for the IC50 values is patent publication US6646129B2, “Cyanoguanidines as cell proliferation inhibitors” (Leo Pharmaceutical Products Ltd. A/S, priority 1997, dated 2003).

Usually IC50 stands for the point on the concentration scale where inhibition reaches its midpoint.

Holding throughout (assay type): cell-based
The test system of assay [1] is human non small cell lung cancer (NCI-H460) cell line. As to the kind of experiment: Inhibition of tumour cell proliferation in vitro, [3H]thymidine incorporation, NCI-H460. As to conditions: NCI-H460 cells, 24 hours with compound, DNA synthesis by [3H]thymidine incorporation. The method, then:
(§1) The inhibition of tumour cell proliferation was studied using different types of human cancer cell lines. The cell lines under investigation were small cell lung carcinoma (NYH), non small cell lung carcinoma (NCl-H460), and breast cancer (MCF-7) using the following general procedure:
(§2) The cells were cultured in vitro for 24 hours in the presence of the compound under investigation. DNA synthesis was measured by incorporation of [^3H]thymidine, and the median inhibitory concentrations (IC50) of the compounds were calculated.

Assay [2] concerns human small cell lung carcinoma (NYH) cell line. As to the kind of experiment: Inhibition of tumour cell proliferation in vitro, [3H]thymidine incorporation, NYH. As to conditions: NYH cells, 24 hours with compound, DNA synthesis by [3H]thymidine incorporation. Here is the method: as §1, §2
(In general: Dividing cells build labelled thymidine or BrdU into new DNA.)

The subject of assay [3] is human breast cancer (MCF-7) cell line. As to the kind of experiment: Inhibition of tumour cell proliferation in vitro, [3H]thymidine incorporation, MCF-7. As to conditions: MCF-7 cells, 24 hours with compound, DNA synthesis by [3H]thymidine incorporation. Here is the method:
as §1, §2

For `N#CNC(=NCCCCCCCCCCCOC1CCCCO1)Nc1ccncc1` (stereo not drawn) [Example No. 7, N-Cyano-N′-4-pyridyl-N″-(11-tetrahydropyranyloxyundecanyl)guanidine], the IC50 in assay [1] is 4.6 nM; in assay [2], 0.51 nM; in assay [3] it was 4.2 nM.
Turning to `CC(C)(C)OC(=O)NCCCCCCCCCCCCNC(=Nc1ccncc1)NC#N` [Example No. 1, N-(1 2-t-Butoxycarbonylaminododecyl)-N′-cyano-N″-4-pyridylguanidine], the IC50 in assay [1] (Homo sapiens) was determined as 45 nM; in assay [2] (Homo sapiens) it was 0.62 nM; in assay [3] (Homo sapiens, MCF7), 3.6 nM.
On the same counts, the results for `CCP(=O)(CC)OCCCCCCCCCCCNC(=Nc1ccncc1)NC#N` [Example No. 8, N-Cyano-N′-(11-diethylphosphinoyloxyundecanyl)-N″-4-pyridylguanidine] are 6 nM, 0.48 nM and 1.7 nM.
